In patent US9175016B2, “Prochelators useful for inhibiting metal-associated toxicity” (Duke University, priority 2009, dated 2015):

Legend:
[1] = preliminary investigations
Description: Quinoline boronic acid (QBA) is commercially available. […] In order to prevent premature metal binding, it was therefore necessary to form a boronic ester.

[2] = tested on: Aβ; assay: Turbidity (light scattering) assay of metal-induced Aβ aggregation; assay type: biochemical
Protocol: FIG. 4. […] Samples, which contain various combinations of 10 μM Aβ, 10 μM Cu(Gly)2, 10 μM ZnCl2, 10 or 20 μM 8HQ, 20 or 100 μM QBA, 20 or 100 μM QBP, as indicated on the graph, were incubated in a 96 well plate at 37° C. Total volume per well was made up to 200 μL with Hepes buffer. Abs readings were taken 64 min after mixing (diagonal hashed bars). After one hour incubation, 1 mM H2O2 was added to each well and Abs readings were taken after 30 min (horizontal striped bars). Error bars represent the variability of triplicate measurements.

[3] = tested on: H2O2 production by Cu; assay: Hydrogen peroxide detection by the Amplex Red/HRP assay (Aβ, Cu(Gly)2, ascorbic acid); assay type: biochemical
Protocol: FIG. 6. Hydrogen peroxide detection by the Amplex Red/HRP assay for samples containing various combinations of 200 nm Aβ, 200 nm Cu(Gly)2, 10 μM ascorbic acid, 2-200 μM QBP, 50-400 nm 8HQ, in a total volume of 50 μL buffer (50 mM hepes, 150 mM NaCl). Samples were incubated at 37° C. for approximately 1 h before 50 μL of Amplex Red/HRP reagent was added. Fluorescence readings were taken with λex=485 and λem=590 nm.
(§1) The complex [Cu(8HQ)2] has a characteristic absorbance band at 375 nm, which is clearly visible in samples that contain Aβ, Cu^2+ and 8HQ. […] Mass spectral analysis of the sample gives m/z of 352, further confirming formation of [Cu(8HQ)2] in these complex mixtures. The previous experiment contained a relatively high concentration (1 mM) of H2O2 that was added in a single bolus. Several groups have shown that combinations of Aβ, Cu and reductants produce significant amounts of H2O2 from O2. Therefore, to investigate whether these conditions of more biologically relevant H2O2 production are sufficient for activating QPB, samples of Aβ, Cu^2+ (provided as Cu(Gly)2), ascorbic acid, and either 8HQ or QBP were monitored for H2O2 production with the Amplex Red assay. […] Samples that contain Cu and ascorbate (with or without Aβ) provide just over 300 nM detectable H2O2. […] When 8HQ is present at a 2:1 ratio to Cu, the amount of detectable H2O2 diminishes to one third that detected in the presence of Aβ. […] When QBP is added to the reaction mixture in place of 8HQ, a similar result is obtained.

[4] = Stability of QBP in aqueous solution (hydrolysis to QBA), monitored by UV-Vis and mass spectrometry; assay type: physicochemical
[5] = UV-vis spectra of oxidation and Cu2+ binding by QBP; conditions: 100 μM QBP
Protocol: FIG. 2. Oxidation and Cu^2+ binding by QBP. 100 μM QBP and 50 μM Cu(Gly)2 were incubated in PBS buffer pH 7.4. After one hour, 4 mM H2O2 was added. After 60 min, oxidation and Cu binding were complete. Resulting spectrum is nearly identical to 8HQ-Cu spectra.
With the phenol of 8HQ masked by the pinanediol boronic ester, the QBP prochelator should have little to no affinity for metal ions.

[6] = Rate of conversion of QBP to 8HQ by H2O2 (pseudo first-order, spectrophotometric); assay type: physicochemical; conditions: 100 μM QBP, PBS pH 7.4, 1-10 mM H2O2
Protocol: FIG. 3. Plot of kobs at varying concentrations of H2O2 to obtain the rate constant k for the conversion of QBP to HQ. QBP was initially dissolved in a minimal amount of methanol and then diluted into PBS buffer, pH 7.4, to a final concentration of 100 μM. Spectra were taken immediately after addition of 1-10 mM H2O2; at least 40 spectra were collected before 50% conversion of prochelator to chelator. The change in absorbance at 273 nm was used to follow the reaction. The negative slope of the linear fit of ln(1−(A−Ao/Ao)) vs time gives the observed rate constant kobs. The slope of the line through data kobs vs [H2O2] provides k (M^−1 s^−1).
In order to determine the rate of conversion of QBP to 8HQ by H2O2 (Eq. 2), reactions were monitored spectrophotometrically under pseudo first-order conditions of excess H2O2. The observed rate constants (kobs) were plotted against peroxide concentration (FIG. 3) to give a rate constant k of 0.13 M^−1 s^−1. rate=k[QBP][H2O2] Eq. 2

[7] = tested on: Aβ; assay: UV-vis analysis of H2O2-treated Aβ samples; assay type: biochemical; conditions: samples containing Aβ/Cu/QBP/H2O2
Description: FIG. 5. UV-vis analysis of H2O2-treated Aβ samples. The samples are the same ones as in FIG. 4.
Further confirmation that Cu(8HQ)2 is, indeed, generated in the reaction of Aβ/Cu/QBP/H2O2 described in FIG. 4 comes from the UV-vis spectrum of the reaction mixture, shown in FIG. 5.
as §1

OBO.c1ccc2ncccc2c1 [QBA, Quinoline boronic acid]
interaction with metal ions [1]: interacts directly with metal ions

Oc1cccc2cccnc12 [8HQ, 8-hydroxyquinoline, reference compound]
copper-induced Aβ aggregation ([2]; 2 equiv of 8HQ, 10 μM Aβ, 10 μM Cu(Gly)2, 37° C.): completely inhibits
zinc-induced Aβ aggregation ([2]; 2 equiv of 8HQ, 10 μM Aβ, 10 μM ZnCl2, 37° C.): significantly reduces
amount of detectable H2O2 relative to that detected in the presence of Aβ ([3]; 8HQ at a 2:1 ratio to Cu): one third
H2O2 production ([3]; 8HQ at a quarter of an equiv of Cu, 200 nM Cu(Gly)2, 200 nM Aβ, 10 μM ascorbic acid, 1-h incubation, pH 7.4): inhibits H2O2 production

CC1(C)C2CC3OB(c4cccc5cccnc45)OC3(C)C1C2 (stereo not shown) [QBP]
hydrolysis to QBA in aqueous solution ([4]; between pH 5-8, over the course of 10 h): no signs of hydrolysis
hydrolysis to QBA in aqueous solution ([4]; low and high pH values outside pH 5-8, mass spectrometry): some hydrolysis to QBA was detected
time after H2O2 addition at which oxidation and Cu binding were complete ([5]; 50 μM Cu(Gly)2, PBS pH 7.4, 4 mM H2O2): 60 min
spectrum after addition of H2O2 ([5]; 50 μM Cu(Gly)2, PBS pH 7.4, 4 mM H2O2 added): matches that of [Cu(8HQ)2]
interaction with Cu2+ in prochelator form (UV-vis spectral change) ([5]; 50 μM Cu(Gly)2, PBS pH 7.4, one hour, no H2O2): does not interact with Cu^2+
rate constant k for conversion of QBP to 8HQ by H2O2 [6]: 0.13 M⁻¹ s⁻¹
turbidity of Aβ/Cu2+ samples after H2O2 addition ([2]; 1 mM H2O2 added after one hour incubation, read 30 min later): significant decrease in turbidity
metal-induced Aβ aggregation ([2]; 20 or 100 μM QBP, no H2O2): does not interfere
formation of [Cu(8HQ)2] (absorbance band at 375 nm) [7]: [Cu(8HQ)2] has, indeed, been generated
H2O2 detected relative to the concentration obtained in the absence of chelator ([3]; 100 μM QBP with Cu, ascorbate and Aβ): a third
H2O2 detected ([3]; 100 μM QBP with Cu, ascorbate and Aβ, 1-h incubation): about 100 nM
